These results are taken from publication PMC7232676, “Fragment-Based Design of Mycobacterium tuberculosis InhA Inhibitors” (Journal of Medicinal Chemistry, 2020).

Where two headings read alike, the source gives them in different places.

The target in experiment [1] is InhA (Mycobacterium tuberculosis, UniProt P9WGR1). Put plainly: InhA enzymatic assay (NADH oxidation at 340 nm, 2-trans-octanoyl-CoA substrate). The format is biochemical. The method, then: The identified fragment hits were further evaluated by an InhA enzymatic assay using 2-trans-octanoyl-CoA as a substrate.[22]
Sequence of InhA (P9WGR1 whole entry, looked up, the tested form may be a part): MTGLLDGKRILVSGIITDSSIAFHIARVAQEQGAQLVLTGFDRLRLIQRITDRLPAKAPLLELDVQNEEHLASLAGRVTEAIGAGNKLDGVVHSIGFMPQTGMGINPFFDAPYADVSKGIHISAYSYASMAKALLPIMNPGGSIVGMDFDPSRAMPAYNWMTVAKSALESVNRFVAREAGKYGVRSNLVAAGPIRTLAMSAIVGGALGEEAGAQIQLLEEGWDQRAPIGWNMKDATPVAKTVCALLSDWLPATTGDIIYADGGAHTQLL
The carboxylic acid in fragment 1 (P1) was replaced by an isosteric sulfonamide as a linker to synthesize compound 6 (Figure 2b). Docking experiments with Glide XP[23] […] All the synthesized compounds were tested at a concentration of 100 μM using the InhA enzymatic assay.
InhA activity was followed by a colorimetric assay that measured the oxidation of NADH at 340 nm in the presence of 2-trans-octanoyl-CoA as described before in a buffer that contained 30 mM PIPES, pH 7.5, 50 mM NaCl, 0.1 mM EDTA, and 100 nM InhA.[26] This was preincubated for 10 min at room temperature with 0.25 mM NADH and varying concentrations of the compounds with 1% (v/v) DMSO in a 150 μL reaction volume. The reaction was started by the addition of 2-trans-octanoyl-CoA at a final concentration of 1.5 mM, prepared as described previously.[22] Reactions were followed for 20 min using a plate reader (CLARIOstar, BMG LABTECH).

Experiment [2] deals with synthesis of mycolic acids in M. tuberculosis H37Ra. Put plainly: Metabolic labeling with 14C acetate, TLC of FAME/MAME (mycolic acid synthesis). It counts as cell-based, Mycobacterium tuberculosis. The settings on record: 14C acetate labeling. The method, then: (§1) Further analysis of the effect on the synthesis of mycolic acids by metabolic labeling[24],[25] of the model strain M. tuberculosis H37Ra with ^14C acetate was also explored. A 48 h cultivation in the presence of 200 μM of the compounds in the media led to 84% growth inhibition for compound 19; 40% and 33% growth inhibition for compounds 14 and 23, respectively; 38% growth inhibition for compound 24 and isoniazid; 23% growth inhibition for compounds 25 and 26.
(§2) Figure 5 (A) TLC of the metabolic labeling experiments of M. tuberculosis H37Ra with ^14C acetate treated with the compounds 14, 19, and 23–26 for the analysis of mycolic acid inhibition. Fatty acid methyl esters, FAME; mycolic acid methyl esters, MAME; isoniazid, INH. (B) TLC of the metabolic labeling experiments of M. tuberculosis H37Ra with ^14C acetate treated with the compounds 14, 19, and 23–26 for the analysis of the lipid inhibition. Trehalose monomycolates, TMM; trehalose dimycolates, TDM; phosphatidylethanolamine, PE; cardiolipin, CL; isoniazid, INH.
The culture of M. tuberculosis H37Ra was grown statically at 37 °C in Middlebrook 7H9 broth (Difco) supplemented with albumin–dextrose–catalase and 0.05% Tween 80. […]
Fatty acid methyl esters (FAMEs) and mycolic acids methyl esters (MAMEs) were prepared from whole cells harvested from 4 mL culture aliquots as previously described.[32] […] 3× and detected by autoradiography.

The subject of experiment [3] is trehalose monomycolates and dimycolates in M. tuberculosis H37Ra. As to the kind of experiment: Metabolic labeling with 14C acetate, TLC of lipid profiles (TMM, TDM). The settings on record: 200 μM compound, 14C acetate labeling. It counts as cell-based, Mycobacterium tuberculosis.
Source text: as §2
The culture of M. tuberculosis H37Ra was grown statically at 37 °C in Middlebrook 7H9 broth (Difco) supplemented with albumin–dextrose–catalase and 0.05% Tween 80. When the culture reached the OD600nm value of 0.290, it was divided into 10 mL aliquots and tested compounds dissolved in DMSO were added at 200 μM final concentrations, while isoniazid that served as a control inhibitor was at 40 μM. The final concentration of DMSO in each culture was at 1%. […]
Lipids were extracted from whole cells as described earlier with minor modifications.[24] […] Five μL of each lipid sample was loaded on the thin-layer chromatography (TLC) silica gel plates (F254, Merck); lipids were separated in chloroform/methanol/water [20:4:0.5] and detected by autoradiography.

In experiment [4] the test system is M. tuberculosis H37Ra. Put plainly: Growth inhibition of M. tuberculosis H37Ra, 48 h cultivation. The format is cell-based, Mycobacterium tuberculosis. The settings on record: Mycobacterium tuberculosis, H37RA. The method, then: as §1
The culture of M. tuberculosis H37Ra was grown statically at 37 °C in Middlebrook 7H9 broth (Difco) supplemented with albumin–dextrose–catalase and 0.05% Tween 80. When the culture reached the OD600nm value of 0.290, it was divided into 10 mL aliquots and tested compounds dissolved in DMSO were added at 200 μM final concentrations, while isoniazid that served as a control inhibitor was at 40 μM. The final concentration of DMSO in each culture was at 1%. After 24 h of cultivation with shaking (120 rpm) in the presence of tested inhibitors, ^14C acetate (specific activity of 106 mCi/mmol) was added at a final concentration of 0.5 μCi/mL and the cells were cultivated for the next 24 h.

Take `NCc1cccc(NS(=O)(=O)/C=C/c2cccc(C(F)(F)F)c2)c1` [compound 19, (E)-N-(3-(Aminomethyl)phenyl)-2-(3-(trifluoromethyl)phenyl)ethene-1-sulfonamide]: the inhibition at 100 µM is greater than 90% in experiment [1] (100 μM compound, read-out: Inh % (inhibition percentage of InhA)) and greater than 90% in experiment [1] (supplementary CSV, read-out: % inhibition). Further, the “LE (ligand efficiency)” value in experiment [1] (LE = (1.37 × pIC50)/HA) amounted to 0.31. Besides, inhibition in experiment [1] (average of three experiments) was half-maximal at 4 µM (IC50). Also, the “effect on synthesis of mycolic acids” value in experiment [2] (200 μM compound) is listed as “slight inhibition”. Moreover, the “amount of trehalose dimycolates (TDM)” value in experiment [3] was “decrease”. Moreover, in experiment [3], the “amount of trehalose monomycolates (TMM)” value is on record as “accumulation”. The compound also showed an inhibition at 200 µM in experiment [4] (200 μM compound in the media, 48 h cultivation) of 84%.

Consider `NNC(=O)c1ccncc1` [isoniazid, reference compound], for which the “effect on synthesis of mycolic acids” value in experiment [2] (isoniazid control at 40 μM) is recorded as “complete abolition”. The inhibition at 40 µM in experiment [4] (48 h, read-out: growth inhibition) worked out at 38%.

Usually inhibition stands for how much of the control response was suppressed. In general, IC50 refers to the concentration needed to halve the response being measured. Lower therefore signals inhibition by little substance.
